The subject of data set [1] is ZIKV. Briefly: ZIKV reporter assay (luciferase-expressing ZIKV PAN1 Nluc in Huh7 cells). Particulars: Zika virus, Huh-7, Huh7, MOI 0.2, 72 hpi. Type of data set: cell-based. As to the method: The initial screening for ZIKV was performed using the in-house developed infectious ZIKV reporter expressing Nanoluc (ZIKV PAN1 Nluc) (see details in SI). Briefly, 1.5 × 10^4 Huh7 cells per well were seeded in 96 well plates. Next day, cells were inoculated with the ZIKV reporter at a multiplicity of infection (MOI) of 0.2 in infection medium (MEM medium supplemented with 1% FBS, 100 IU streptomycin/penicillin per mL, 1 mM sodium pyruvate and 10 mM HEPES). After 2 h, the inoculum was replaced with post-infection medium (MEM medium supplemented with 5% FBS, 100 IU streptomycin/penicillin per mL, 1 mM sodium pyruvate and 10 mM HEPES) containing compound of interest (10 µM). We used the flavivirus NS5 MTase inhibitor NSC12155^13 (10 µM) and the NS5 RdRp inhibitor NITD008^12 (1 µM) as positive controls for inhibition or 0.05% DMSO as vehicle control. Seventy-two hours post-infection (hpi), the cells were lysed with 50 µL 1× luciferase lysis buffer (Promega, Madison, WI, USA), incubated 10 min at room temp and stored at −80 °C. Thirty-five µL of lysed cells were transferred to a white 96-well plate and combined with 35 µL Nano-Glo® luciferase assay substrate (Promega) diluted 1:50 in Nano-Glo® luciferase assay buffer (Promega). The reaction was incubated for 2 min and luminescence readings were acquired using a Neo 2 plate reader (BioTek, Winooski, VT, USA). Percent inhibition was calculated in GraphPad Prism (San Diego, CA, USA) normalizing the luciferase signal to infected cells treated with DMSO (0% inhibition) and uninfected cells treated with DMSO (100% inhibition). EC50 values were calculated in GraphPad Prism using data obtained from dose-response experiments. For compounds 1 and 8, a range of concentrations between 0.05 and 15 µM were used. For compounds 11, 14, 23 and NSC12155, we used concentrations from 0.005 to 90 µM and 0.002 to 45 µM for NITD008.
(In general: In a reporter assay the amount or activity of a reporter protein is the signal.)

Data set [2] relates to ZIKV. Briefly: ZIKV titer-reduction assay (plaque assay). It counts as cell-based, Zika virus. Particulars: Huh7, MOI 0.2, 72 hpi; for inhibition at 8.5 µM / inhibition at 1.5 µM / pEC50 / EC90: Zika virus; for inhibition at 8.5 µM / inhibition at 1.5 µM: Huh-7, 72 h; for pEC50 / EC90: Huh-7. The protocol:
Selected compounds were validated at 8.5 µM or 1.5 µM (for compounds considered toxic at higher concentrations) using titer-reduction assays. Huh7 cells (1.5 × 10^5 per well) were plated in 24-well plates. Next day, the cells were inoculated with ZIKV or DENV (MOI 0.2 or 0.05, respectively) and two hours later, the inoculum was replaced with post-infection medium containing compound of interest at 8.5 µM or 1.5 µM. Seventy-two hpi, supernatants from infected and treated cells were collected and viral titers were measured by plaque assay. To visualize plaques, confluent Vero cells in 24-well plates were inoculated with 1:10 serial dilutions of supernatants. After two hours, the inoculum was retired and replaced with 800 µL of overlay medium (MEM medium containing 1.3% methylcellulose, 2% FBS, 100 IU streptomycin/penicillin per mL and 10 mM HEPES). After 5 days (7 days for DENV), cells were washed with PBS, fixed with 2% formaldehyde, and stained using 0.5% crystal violet in 25% methanol. Infectious virus titer (pfu/mL) was determined using the following formula: number of plaques × dilution factor × (1/inoculum volume (mL)). Viral titers were normalized with DMSO-treated and infected cells (0% inhibition). The limit of detection was 200 pfu/mL (100% inhibition). […] Dose-response assays (Figure S4, Panels B and C) were performed for selected compounds using titer-reduction assays. We used a concentration range of 0.5 to 15 µM for all selected compounds except for compound 14 (range of 0.1–3 µM). Pfu/mL were normalized as mentioned for single-dose response experiment using the values for DMSO-treated and infected cells (0% inhibition) and the limit of detection value (200 pfu/mL) as 100% inhibition. Dose-response curves were built in GraphPad Prism and EC50 values were obtained from those curves.

Data set [3] is described as follows: Cell viability assay (MTS). Type of data set: cell-based. The settings on record: human, non-infected Huh7 cells; for viability at 10 µM: normalized to DMSO; for CC50 at 72 h: Huh7 cells. The protocol:
Cell viability assays for non-infected Huh7 cells treated with the testing compounds (in-house library), control compounds (NITD008, RDV) and DMSO were performed in parallel with the antiviral screening. After 3 or 5 days of treatment, depending upon the experiment, cell viability was evaluated using the MTS-based tetrazolium reduction CellTiter 96 Aqueous Non-Radioactive cell proliferation assay (Promega). Treatment was retired from the wells and the cells incubated with MTS diluted 1:10 in MEM medium supplemented with 10% FBS. Absorbance was measured at 490 nm wavelength. Readings were normalized with DMSO-treated cells (100%) and expressed as % viability. For dose-response experiments, we used concentrations between 0.01 and 90 µM and dose-response curves and CC50 were calculated using GraphPad Prism.

pEC50: −log10 of the molar value.

Broadly, the inhibition is the drop in the measured response relative to a control, in per cent. In general, viability refers to a read-out of living cells in per cent, often relative to untreated cells. Low readings indicate more harm to the cells, high ones less harm to the cells. One may read the pEC50 as the negative decadic logarithm of the EC50, by convention in mol/L. The term EC90 denotes the concentration at which the effect reaches the 90% level. One may read the CC50 as the concentration giving 50% cytotoxicity.

`CS(=O)(=O)c1cccc(Cn2ccc3c(NCc4cccc(Cl)c4)ncnc32)c1` [Compound 10, N-(3-Chlorobenzyl)-7-(3-(methylsulfonyl)benzyl)-7H-pyrrolo[2,3-d]pyrimidin-4-amine] came in with an inhibition at 10 µM in the data set with ZIKV [1] of 72%. In the data set on ZIKV [2] (8.5 µM), this compound had an inhibition at 8.5 µM of 92%. In data set [3], this compound came in with a viability at 10 µM of 82%.

In turn, `FC(F)(F)c1cccc(Cn2ccc3c(NCc4cccc(Cl)c4)ncnc32)c1` [Compound 9, N-(3-Chlorobenzyl)-7-(3-(trifluoromethyl)benzyl)-7H-pyrrolo[2,3-d]pyrimidin-4-amine] yielded an inhibition at 10 µM in the data set on ZIKV [1] of 92%. Further, the “Titer Reduction Assay % at 8.5 µM” value with ZIKV [2] (8.5 µM) is “toxic”. Moreover, the viability at 10 µM in data set [3] was 61%.

In the data set on ZIKV [1], `Cc1cc(N)c2cc(NC(=O)Nc3ccc4nc(C)cc(N)c4c3)ccc2n1` [NSC 12155, reference compound] showed an inhibition at 10 µM of 68% and a pEC50 of 5.66. This compound yielded an inhibition at 1.5 µM in the data set with ZIKV [2] (1.5 µM) of 37%. For the same compound, in the data set on ZIKV [2] (8.5 µM), 8.5 µM produced 72% inhibition. In the data set with ZIKV [2], the pEC50 was 5.13 and it took 14.1 µM to reach the 90% level (EC90). In data set [3], this compound yielded a viability at 10 µM of 70% and a CC50 at 72 h of 23 µM.

Compound `O=[N+]([O-])c1ccc(Cn2ccc3c(NCc4cc(Cl)ccc4Cl)ncnc32)cc1` [Compound 22, N-(2,5-Dichlorobenzyl)-7-(4-nitrobenzyl)-7H-pyrrolo[2,3-d]pyrimidin-4-amine] had an inhibition at 10 µM in the data set with ZIKV [1] of 71%. In the data set with ZIKV [2] (8.5 µM), the inhibition at 8.5 µM is 77%. In data set [3], this compound showed a viability at 10 µM of 62% and a CC50 at 72 h of 26.9 µM.

As for `Cc1cccc(CNc2ncnc3c2ccn3Cc2ccc(C#N)cc2)c1` [Compound 25, 4-((4-((3-Methylbenzyl)amino)-7H-pyrrolo[2,3-d]pyrimidin-7-yl)methyl)benzonitrile], in the data set on ZIKV [1], at 10 µM the inhibition was 84%. For the same compound, in data set [3], the viability at 10 µM is 33%.

Consider `N#Cc1ccc(Cn2ccc3c(NCc4ccccc4Cl)ncnc32)cc1` [Compound 26, 4-((4-((2-Chlorobenzyl)amino)-7H-pyrrolo[2,3-d]pyrimidin-7-yl)methyl)benzonitrile], for which, in the data set with ZIKV [1], 10 µM produced 58% inhibition. In addition, the viability at 10 µM in data set [3] was found to be 76%.

In turn, `O=[N+]([O-])c1ccc(Cn2ncc3c(NCc4cccc(Cl)c4)ncnc32)cc1` [Compound 31, N-(3-Chlorobenzyl)-1-(4-nitrobenzyl)-1H-pyrazolo[3,4-d]pyrimidin-4-amine] showed an inhibition at 10 µM with ZIKV [1] of 83%. In addition, testing at 8.5 µM in the data set on ZIKV [2] (8.5 µM) gave an inhibition of 86%. Besides, the viability at 10 µM in data set [3] came to 96%.

In the case of `FC(F)(F)c1ccc(Cn2ccc3c(NCc4cccc(Cl)c4)ncnc32)cc1` [Compound 6, N-(3-Chlorobenzyl)-7-(4-(trifluoromethyl)benzyl)-7H-pyrrolo[2,3-d]pyrimidin-4-amine], the inhibition at 10 µM in the data set on ZIKV [1] is 85%. In addition, the inhibition at 8.5 µM in the data set on ZIKV [2] (8.5 µM) amounted to 83%. For the same compound, in data set [3], the viability at 10 µM worked out at 62%.

In the data set on ZIKV [1], `Clc1cccc(CNc2ncnc3c2ccn3Cc2ccc3ccccc3c2)c1` [Compound 13, N-(3-Chlorobenzyl)-7-(naphthalen-2-ylmethyl)-7H-pyrrolo[2,3-d]pyrimidin-4-amine] yielded an inhibition at 10 µM of 75%. At 1.5 µM the inhibition in the data set on ZIKV [2] (1.5 µM) was 18%. The compound further gave a viability at 10 µM in data set [3] of 45%.

As for `O=[N+]([O-])c1ccc(Cn2cnc3c(NCc4cccc(Cl)c4)ncnc32)cc1` [Compound 29, N-(3-Chlorobenzyl)-9-(4-nitrobenzyl)-9H-purin-6-amine], the inhibition at 10 µM with ZIKV [1] was determined as 59%. Besides, 8.5 µM produced 90% inhibition with ZIKV [2] (8.5 µM). In data set [3], this compound returned a viability at 10 µM of 87% and a CC50 at 72 h of 24.5 µM.

`Clc1cccc(CNc2ncnc3c2ccn3Cc2ccc3nc(Cl)ccc3c2)c1` [Compound 16, N-(3-Chlorobenzyl)-7-((2-chloroquinolin-6-yl)methyl)-7H-pyrrolo[2,3-d]pyrimidin-4-amine] gave an inhibition at 10 µM in the data set on ZIKV [1] of 95%. For the same compound, testing at 1.5 µM with ZIKV [2] (1.5 µM) gave an inhibition of 10%. The viability at 10 µM in data set [3] is 34%.

`N#Cc1ccc(Cn2ncc3c(NCc4cccc(Cl)c4)ncnc32)cc1` [Compound 32, 4-((4-((3-Chlorobenzyl)amino)-1H-pyrazolo[3,4-d]pyrimidin-1-yl)methyl)benzonitrile] showed an inhibition at 10 µM with ZIKV [1] of 79%. This compound came in with an inhibition at 8.5 µM with ZIKV [2] (8.5 µM) of 88%. Besides, in data set [3], the viability at 10 µM amounted to 88% and the CC50 at 72 h came to 17.4 µM.

In the data set on ZIKV [1], `N#Cc1ccc(Cn2cnc3c(NCc4cccc(Cl)c4)ncnc32)cc1` [Compound 30, 4-((6-((3-Chlorobenzyl)amino)-9H-purin-9-yl)methyl)benzonitrile] had an inhibition at 10 µM of 68%. In the data set with ZIKV [2] (8.5 µM), this compound gave an inhibition at 8.5 µM of 93%. In addition, in the data set on ZIKV [2], the pEC50 is 5.15 and the EC90 is 12.4 µM. Further, in data set [3], the viability at 10 µM worked out at 94% and the half-maximal cytotoxic concentration (CC50) at 72 h was determined as 49.3 µM.

`Nc1ccc(Cn2ccc3c(NCc4cccc(Cl)c4)ncnc32)cc1` [Compound 2, 7-(4-Aminobenzyl)-N-(3-chlorobenzyl)-7H-pyrrolo[2,3-d]pyrimidin-4-amine] registered an inhibition at 10 µM with ZIKV [1] of 72%. For the same compound, the “Titer Reduction Assay % at 1.5 µM” value with ZIKV [2] (1.5 µM) is given as “toxic”. The compound also gave a viability at 10 µM in data set [3] of 38%.

With `O=[N+]([O-])c1ccc(Cn2ccc3c(NCc4ccccc4Cl)ncnc32)cc1` [Compound 19, N-(2-Chlorobenzyl)-7-(4-nitrobenzyl)-7H-pyrrolo[2,3-d]pyrimidin-4-amine], in the data set on ZIKV [1], the inhibition at 10 µM amounted to 49%. The inhibition at 8.5 µM in the data set on ZIKV [2] (8.5 µM) came to 91%. The same compound showed a viability at 10 µM in data set [3] of 80%.

In the case of `Clc1cccc(CNc2ncnc3c2ccn3Cc2cccc3ccccc23)c1` [Compound 12, N-(3-Chlorobenzyl)-7-(naphthalen-1-ylmethyl)-7H-pyrrolo[2,3-d]pyrimidin-4-amine], at 10 µM the inhibition with ZIKV [1] was 84%. Further, in the data set with ZIKV [2] (8.5 µM), the inhibition at 8.5 µM amounted to 66%. In data set [3], this compound registered a viability at 10 µM of 73%.

`O=[N+]([O-])c1ccc(Cn2ccc3c(NCc4ccccc4)ncnc32)cc1` [Compound 18, N-Benzyl-7-(4-nitrobenzyl)-7H-pyrrolo[2,3-d]pyrimidin-4-amine] returned an inhibition at 10 µM in the data set with ZIKV [1] of 96%. The compound also registered a viability at 10 µM in data set [3] of 42%.

`N#Cc1ccc(Cn2ccc3c(NCc4cccc(Cl)c4Cl)ncnc32)cc1` [Compound 27, 4-((4-((2,3-Dichlorobenzyl)amino)-7H-pyrrolo[2,3-d]pyrimidin-7-yl)methyl)benzonitrile] gave an inhibition at 10 µM in the data set on ZIKV [1] of 71%. The same compound yielded a viability at 10 µM in data set [3] of 78%.

For the compound `N#Cc1ccc(Cn2ccc3c(NCc4cc(Cl)ccc4Cl)ncnc32)cc1` [Compound 28, 4-((4-((2,5-Dichlorobenzyl)amino)-7H-pyrrolo[2,3-d]pyrimidin-7-yl)methyl)benzonitrile], the inhibition at 10 µM with ZIKV [1] came out at 74%. The compound further displayed a viability at 10 µM in data set [3] of 48%.

Turning to `Nc1ncnc2c1ccn2Cc1ccc([N+](=O)[O-])cc1` [Compound 17, 7-(4-Nitrobenzyl)-7H-pyrrolo[2,3-d]pyrimidin-4-amine], at 10 µM the inhibition with ZIKV [1] was 0%. In data set [3], this compound registered a viability at 10 µM of 92%.
